The assay relates to L1210 leukemia ip in BDF1 mice, survival T/C. Kind of assay: NCI In Vivo Anticancer Drug Screen. Data for tumor model L1210 Leukemia (intraperitoneal) in B6D2F1 (BDF1) mice. Conditions: higher = longer survival. In short, it runs like this:
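Tumor cells were implanted, animals were treated, and survival was followed. The result divides the treated measurement by the vehicle-control measurement.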

Each structure is given as a SMILES string. Where “and” joins values, the source holds several entries; their conditions need not be identical. Equal entries are not always repeated. Inconclusive results and toxic doses are left out.

For `CO[C@@]12[C@H](COC(N)=O)C3=C(C(=O)C(C)=C(N)C3=O)N1C[C@@H]1N[C@@H]12`, the T/C (endpoint: mean survival time, dose: 0.1 mg/kg/injection, schedule: Q01DX Z (ip), vehicle: carboxymethylcellulose (CMC)) is 110 % of control; the T/C (endpoint: mean survival time, dose: 0.18 mg/kg/injection, schedule: Q04DX002 (ip), vehicle: saline) was 106 % of control and 110 % of control; the T/C (endpoint: mean survival time, dose: 0.2 mg/kg/injection, schedule: Q01DX Z (ip), vehicle: carboxymethylcellulose (CMC)) is 110 % of control; the T/C (endpoint: mean survival time, dose: 0.2 mg/kg/injection, schedule: Q02DX010 (ip), vehicle: carboxymethylcellulose (CMC)) was 118 % of control; the T/C (endpoint: mean survival time, dose: 0.25 mg/kg/injection, schedule: Q01DX Z (ip), vehicle: carboxymethylcellulose (CMC)) was 107 % of control; the T/C (endpoint: mean survival time, dose: 0.32 mg/kg/injection, schedule: Q01DX Z (ip), vehicle: carboxymethylcellulose (CMC)) is 98 % of control. In addition, the T/C (endpoint: mean survival time, dose: 0.35 mg/kg/injection, schedule: Q01DX009 (ip), vehicle: saline) is 120 % of control; the T/C (endpoint: mean survival time, dose: 0.35 mg/kg/injection, schedule: Q04DX002 (ip), vehicle: saline) was 103 % of control; the T/C (endpoint: mean survival time, dose: 0.4 mg/kg/injection, schedule: Q01DX Z (ip), vehicle: carboxymethylcellulose (CMC)) is 114 % of control and 116 % of control; the T/C (endpoint: mean survival time, dose: 0.4 mg/kg/injection, schedule: Q02DX010 (ip), vehicle: carboxymethylcellulose (CMC)) was 111 % of control and 90 % of control; the T/C (endpoint: mean survival time, dose: 0.5 mg/kg/injection, schedule: Q01DX Z (ip), vehicle: carboxymethylcellulose (CMC)) was 107 % of control and 122 % of control; the T/C (endpoint: mean survival time, dose: 0.53 mg/kg/injection, schedule: Q01DX Z (ip), vehicle: carboxymethylcellulose (CMC)) was 114 % of control. In addition, the T/C reads like this: (endpoint: mean survival time, dose: 0.7 mg/kg/injection, schedule: Q01DX001 (ip), vehicle: saline) 109 % of control; (endpoint: mean survival time, dose: 0.7 mg/kg/injection, schedule: Q04DX002 (ip), vehicle: saline) 103 % of control and 111 % of control; (endpoint: mean survival time, dose: 0.75 mg/kg/injection, schedule: Q01DX001 (ip), vehicle: water) 118 % of control; (endpoint: mean survival time, dose: 0.8 mg/kg/injection, schedule: Q02DX010 (ip), vehicle: carboxymethylcellulose (CMC)) 104 % of control and 121 % of control; (endpoint: mean survival time, dose: 0.86 mg/kg/injection, schedule: Q02DX010 (ip), vehicle: carboxymethylcellulose (CMC)) 117 % of control; (endpoint: mean survival time, dose: 0.9 mg/kg/injection, schedule: Q02DX010 (ip), vehicle: other) 157 % of control and 219 % of control. Besides, the T/C runs as follows: (endpoint: mean survival time, dose: 0.96 mg/kg/injection, schedule: Q01DX001 (ip), vehicle: acetone) 114 % of control; (endpoint: mean survival time, dose: 1.0 mg/kg/injection, schedule: Q01DX001 (ip), vehicle: saline) 111 % of control; (endpoint: mean survival time, dose: 1.0 mg/kg/injection, schedule: Q01DX Z (ip), vehicle: carboxymethylcellulose (CMC)) 161 % of control; (endpoint: mean survival time, dose: 1.1 mg/kg/injection, schedule: Q01DX009 (ip), vehicle: saline) 155 % of control; (endpoint: mean survival time, dose: 1.12 mg/kg/injection, schedule: Q01DX015 (ip), vehicle: carboxymethylcellulose (CMC)) 171 % of control; (endpoint: mean survival time, dose: 1.25 mg/kg/injection, schedule: Q01DX015 (ip), vehicle: saline) 162 % of control. For the same molecule, the T/C is 167 % of control and 207 % of control (endpoint: mean survival time, dose: 1.3 mg/kg/injection, schedule: Q02DX010 (ip), vehicle: other); 111 % of control (endpoint: mean survival time, dose: 1.4 mg/kg/injection, schedule: Q01DX001 (ip), vehicle: acetone); 154 % of control and 178 % of control (endpoint: mean survival time, dose: 1.4 mg/kg/injection, schedule: Q01DX009 (ip), vehicle: saline); 115 % of control (endpoint: mean survival time, dose: 1.5 mg/kg/injection, schedule: Q01DX001 (ip), vehicle: saline); 117 % of control (endpoint: mean survival time, dose: 1.5 mg/kg/injection, schedule: Q01DX001 (ip), vehicle: water); 123 % of control (endpoint: mean survival time, dose: 1.5 mg/kg/injection, schedule: Q07DX003 (ip), vehicle: saline). Besides, the T/C runs as follows: (endpoint: mean survival time, dose: 1.5 mg/kg/injection, schedule: Q## X003 (ip), vehicle: saline) 118 % of control; (endpoint: mean survival time, dose: 1.6 mg/kg/injection, schedule: Q01DX001 (ip), vehicle: saline) 117 % of control; (endpoint: mean survival time, dose: 1.9 mg/kg/injection, schedule: Q01DX009 (ip), vehicle: saline) 97 % of control; (endpoint: mean survival time, dose: 2.0 mg/kg/injection, schedule: Q01DX Z (ip), vehicle: carboxymethylcellulose (CMC)) 106 % of control; (endpoint: mean survival time, dose: 2.0 mg/kg/injection, schedule: Q02DX010 (ip), vehicle: other) 180 % of control and 184 % of control; (endpoint: mean survival time, dose: 2.12 mg/kg/injection, schedule: Q02DX010 (ip), vehicle: carboxymethylcellulose (CMC)) 158 % of control. Further, the T/C was 108 % of control (endpoint: mean survival time, dose: 2.2 mg/kg/injection, schedule: Q01DX001 (ip), vehicle: saline); 154 % of control (endpoint: mean survival time, dose: 2.5 mg/kg/injection, schedule: Q01DX015 (ip), vehicle: saline); 93 % of control (endpoint: mean survival time, dose: 2.8 mg/kg/injection, schedule: Q01DX009 (ip), vehicle: saline); 123 % of control (endpoint: mean survival time, dose: 3.0 mg/kg/injection, schedule: Q01DX001 (ip), vehicle: saline); 115 % of control and 118 % of control (endpoint: mean survival time, dose: 3.0 mg/kg/injection, schedule: Q02DX010 (ip), vehicle: other); 152 % of control (endpoint: mean survival time, dose: 3.0 mg/kg/injection, schedule: Q## X003 (ip), vehicle: saline). The T/C is 184 % of control (endpoint: mean survival time, dose: 3.2 mg/kg/injection, schedule: Q02DX010 (ip), vehicle: carboxymethylcellulose (CMC)); 116 % of control (endpoint: mean survival time, dose: 3.3 mg/kg/injection, schedule: Q01DX001 (ip), vehicle: saline); 86 % of control and 88 % of control (endpoint: mean survival time, dose: 4.5 mg/kg/injection, schedule: Q02DX010 (ip), vehicle: other); 118 % of control (endpoint: mean survival time, dose: 5.0 mg/kg/injection, schedule: Q01DX001 (ip), vehicle: saline); 89 % of control (endpoint: mean survival time, dose: 5.0 mg/kg/injection, schedule: Q01DX015 (ip), vehicle: saline); 196 % of control (endpoint: mean survival time, dose: 6.0 mg/kg/injection, schedule: Q01DX001 (ip), vehicle: saline). Moreover, the T/C is, setting by setting: (endpoint: mean survival time, dose: 6.0 mg/kg/injection, schedule: Q01DX001 (ip), vehicle: water) 174 % of control; (endpoint: mean survival time, dose: 6.7 mg/kg/injection, schedule: Q02DX010 (ip), vehicle: carboxymethylcellulose (CMC)) 84 % of control; (endpoint: mean survival time, dose: 7.5 mg/kg/injection, schedule: Q01DX001 (ip), vehicle: saline) 123 % of control; (endpoint: mean survival time, dose: 10.6 mg/kg/injection, schedule: Q04DX002 (ip), vehicle: saline) 171 % of control; (endpoint: mean survival time, dose: 11.0 mg/kg/injection, schedule: Q01DX001 (ip), vehicle: acetone) 193 % of control; (endpoint: mean survival time, dose: 12.0 mg/kg/injection, schedule: Q## X003 (ip), vehicle: saline) 100 % of control. Also, the T/C (endpoint: mean survival time, dose: 45.0 micrograms/kg/injection, schedule: Q01DX009 (ip), vehicle: saline) is 99 % of control and 117 % of control; the T/C (endpoint: mean survival time, dose: 90.0 micrograms/kg/injection, schedule: Q01DX009 (ip), vehicle: saline) is 106 % of control and 120 % of control; the T/C (endpoint: mean survival time, dose: 180.0 micrograms/kg/injection, schedule: Q01DX009 (ip), vehicle: saline) was 104 % of control and 120 % of control; the T/C (endpoint: mean survival time, dose: 350.0 micrograms/kg/injection, schedule: Q01DX009 (ip), vehicle: saline) was 121 % of control; the T/C (endpoint: mean survival time, dose: 1400.0 micrograms/kg/injection, schedule: Q01DX009 (ip), vehicle: saline) is 153 % of control; the T/C (endpoint: median survival time, dose: 1.5 mg/kg/injection, schedule: Q01DX001 (ip), vehicle: saline) was 100 % of control. The T/C is, setting by setting: (endpoint: median survival time, dose: 3.0 mg/kg/injection, schedule: Q01DX001 (ip), vehicle: saline) 109 % of control; (endpoint: median survival time, dose: 6.0 mg/kg/injection, schedule: Q01DX001 (ip), vehicle: saline) 109 % of control; (endpoint: median survival time, dose: 12.0 mg/kg/injection, schedule: Q01DX001 (ip), vehicle: saline) 117 % of control.
Take `COC1CC(OCc2ccc(Br)cc2)C(COC(c2ccccc2)(c2ccccc2)c2ccccc2)O1` (configuration not stated): the T/C is, setting by setting: (endpoint: mean survival time, dose: 100.0 mg/kg/injection, schedule: Q04DX003 (ip), vehicle: Klucel (hydroxypropylcellulose) (HPC)) 92 % of control; (endpoint: mean survival time, dose: 200.0 mg/kg/injection, schedule: Q04DX003 (ip), vehicle: Klucel (hydroxypropylcellulose) (HPC)) 94 % of control; (endpoint: mean survival time, dose: 400.0 mg/kg/injection, schedule: Q04DX003 (ip), vehicle: Klucel (hydroxypropylcellulose) (HPC)) 100 % of control.
With `CC[C@H](CC[C@@H](C)[C@H]1CC[C@H]2[C@@H]3CC=C4C[C@@H](OC(=O)CSC(CC(=O)O)C(=O)O)CC[C@]4(C)[C@H]3CC[C@]12C)C(C)C` (some centres not stated), the T/C reads like this: (endpoint: mean survival time, dose: 100.0 mg/kg/injection, schedule: Q01DX001 (ip), vehicle: water) 98 % of control; (endpoint: mean survival time, dose: 200.0 mg/kg/injection, schedule: Q01DX001 (ip), vehicle: water) 86 % of control; (endpoint: mean survival time, dose: 400.0 mg/kg/injection, schedule: Q01DX001 (ip), vehicle: water) 93 % of control.
`Nc1nc2c(nnn2C2CC(CO)C(O)C2O)c(=O)[nH]1` (configuration not stated): the T/C (endpoint: mean survival time, dose: 100.0 mg/kg/injection, schedule: Q01DX001 (ip), vehicle: other) was 104 % of control; the T/C (endpoint: mean survival time, dose: 200.0 mg/kg/injection, schedule: Q01DX001 (ip), vehicle: other) is 105 % of control; the T/C (endpoint: mean survival time, dose: 400.0 mg/kg/injection, schedule: Q01DX001 (ip), vehicle: other) is 109 % of control.

The record behind these values is PubChem BioAssay AID248 (DTP/NCI, 2004).
